Source: US20160237158A1, “Methods and Compositions for Targeting Tumor Microenvironment and for preventing Metastasis” (INSTITUT NATIONAL DE LA SANTÉ ET DA LA RECHERCHE MÉDICALE …, priority 2013, published 2016)

Key:
fibroblasts [1] = experiment: Fibroblast contractility (collagen lattices) and pro-invasive activity (organotypic invasion) induced by human tumour cell conditioned media; assay type: cell-based; design: key to Fibroblasts contractile & pro-invasive phenotype: +: induction; −: no induction
Procedure: (§1) In this assay, hDF or CAFs were cultured during one week in serum-free medium (with either vehicle or cytokines) or CM before embedding in matrix gel. 5×10^5 fibroblasts were embedded in a 1 ml mixture of collagen I and Matrigel18. After the gel was set at 37° C. for 1 h, 5×10^5 SCC12 were plated on top of the gel in complete media. The next day, the gel was lifted onto individual collagen coated nylon discs resting on metal bridges and fed from underneath with daily changes of complete media (with either vehicle or inhibitors), allowing the epithelial layer to grow at an air-liquid interface.
(§2) After 5 days, cultures were fixed (4% paraformaldehyde+0.25% glutaraldehyde in PBS) and processed for haematoxylin and eosin (H&E) staining by standard methods. Invasion assay was measuring the total area of SCC cells and the area of non-invading SCC cells using imageJ software (http://rsbweb.nih.gov/ij/). The value of invasion index shown is the average 1−(non-invading area/total area) of at least ten fields from three or more independent experiments. Error bars are the standard deviation.
(§3) 2.5×10^4 Fibroblasts were embedded in 100 μl of matrix gel (the Collagen-Matrigel mixture used for organotypic invasion assays) and plated into wells of a 96 well plate^57. After 1 h at 37° C., the matrices were overlaid with 100 μl serum-free medium (with either vehicle, cytokines or inhibitors) or CM. Every 2 days, medium was changed and at day 6 the gels were photographed and the respective diameters of the well and gel were measured using ImageJ. The percentage contraction was calculated using the formula 100*(well diameter−gel diameter)/well diameter.
(§4) Neutralizing antibody against LIF (AB-250-NA, R&D, Minneapolis, Minn.), IL-6 R (AB-227-NA, R&D) or TGF beta-1,2,3 (MAB1835, R&D) were used at 10 μg/ml otherwise stated. Neutralizing antibody were incubated one hour with conditioned media before being used for matrix remodelling assay and fibroblasts stimulation to neutralize the biological activity of selected cytokines.
(§5) Cancer Cells were grown to confluence, washed twice with PBS and then incubated in serum-free medium at 37° C. After 48 hours, conditioned medium was collected, centrifugated at 5000 g for 5 minutes to remove cell debris and the supernatant stored at −80° C. For immunobloting analysis, fibroblasts were stimulated with cancer cells conditioned media for 5 min, otherwise stated, and lysed as described in the immunbloting section. To analyse LIF secretion upon TGFβ-1 stimulation, fibroblasts were stimulated with 2 ng/ml TGF beta-1 for 1, 4, 24 or 48 h in serum-free medium and conditioned media was prepared as below for ELISA analysis.

fibroblasts [2] = experiment: Fibroblast contractility and pro-invasive activity induced by murine breast carcinoma cell conditioned media; assay type: cell-based, mouse; design: key: +: induction; −: no induction; settings: antibodies 10 μg·ml−1
Procedure: as §1, §2, §3, §4, §5

hDF and hCAF = experiment: Matrix remodelling (collagen gel contraction) assay; assay type: cell-based, human; settings: hLu-CAF and hBr-CAF cells, FIG. 6A
Procedure: as §3

STAT3 = STAT3 phosphorylation in fibroblasts (western blot); assay type: cell-based, human; settings: hDF stimulated by TGFβ1
Excerpt: (§6) For western blot analysis, antibodies against STAT3 (#9134), pY705-STAT3 (#9145), SMAD2 (#3122), pSer465/467-SMAD2 (#3108), pY1022/1023-JAK1 (#3331), MLC2 (#3672), pThr18/19-MLC2 (#3674) were purchased from Cell Signaling (Cell Signaling Technology, Beverly Mass.), α-tubulin from sigma (T4026, Sigma, Saint Louis, Mo.); JAK1 from Biolegend (#604402, Biolegend, San Diego, Calif.), GP-130 (#sc-655) and RhoA (#sc-418, Santa Cruz Biotechnology, Santa Cruz, Calif.), and alpha-smooth muscle actin (α-SMA) from Abcam (#Ab5694, Abcam, Cambridge, Mass.). For immunofluorescence staining, antibodies against α-SMA and fibronectin were purchased from Sigma (#A2547 and F3648 respectively, Sigma, Saint Louis, Mo.). Chemical inhibitors used: Pyridone 6 (#42009, Calbiochem, Los Angeles, Calif.) was used at […], SB431542 (#1614, Tocris bioscience, Ellisville, Mo.) at 10 μM, Y27632 (#1254, Tocris bioscience, Ellisville, Mo.) and Actinomycin D (#856258, Sigma, Saint Louis, USA) at 5 μg/ml.
For immunoblotting analysis, cells were lysed on ice in lysis buffer (25 mM Tris (pH 6.8), 2% Sodium dodecyl sulfate (SDS), 5% glycerol, 1% beta-mercaptoethanol, 0.01% bromophenol blue). Equal amounts of protein from each sample were loaded on sodium dodecyl sulfate-polyacrylamide gel electrophoresis, separated, and transferred onto nitrocellulose. The immunoblots were blocked by incubation in 5% bovine serum albumin, 10 mM Tris-HCl (ph7.5), 500 mM NaCl, 0.1% Tween 20 for 30 min at room temperature, probed with specific antibodies and then with secondary antibodies using common classical methods. Immunodetection was performed using chemiluminescent HRP subtrate (#WBKLS0500, Millipore, Billerica, Mass.).

hDF [3] = experiment: Fibronectin expression in hDF; assay type: cell-based, human; settings: TGFβ1 stimulation
Procedure: Cells were grown on glass coverslips, fixed in 3% paraformaldehyde for 20 min at room temperature, rinsed twice in PBS and in 50 mM NH4Cl for 10 min and permeabilized with 0.5% Triton X-100 for 5 min. Cells were next blocked in PBS containing 1% bovine serum albumin (BSA) for 30 min and incubated with anti-alpha smooth muscle actin (1/400), or anti-fibronectin (1/400) antibodies in blocking buffer overnight at 4° C. After two washes in PBS, cells were incubated in the presence of a secondary antibody conjugated to Alexa 488 (1/400) for 40 min, rinsed twice in PBS, stained with DAPI (2 ug/ml) for 5 min, rinsed in water and the coverslips mounted onto glass slides using mounting media.

hDF [4] = experiment: qRT-PCR of IL6 family cytokine genes in TGFβ1-stimulated hDF; assay type: cell-based, human; settings: one hour after stimulation, relative to control (Veh)
Procedure: RNA was isolated from total cell lysates using RNeasy Mini kit (#217004, Qiagen, Turnberry Ln Valencia, Calif.) according to the manufacturer's instructions. Reverse Transcription was performed using 500 ng cytoplasmic RNA using Superscript II reverse transcriptase (#18064-014, Invitrogen, Carlsbad, Calif.). Real time PCR was performed using Fast SYBR Green Master Mix ([…]; Applied Biosystems, Foster City, Calif.) in duplicates according to the recommendations of the manufacturer on an ABI Prism 7900HT sequence detection system (Applied Biosystems, Foster City, Calif.). Relative expression of the respective gene was determined after normalization to GAPDH and calculated with the following formula: relative expression level=2ddCT

hDF [5] = experiment: LIF ELISA of TGFβ1-stimulated hDF culture medium; assay type: cell-based, human; settings: after TGFβ1 stimulation
Procedure: For the quantitative determination of LIF protein levels secreted to the media, we used the human LIF ELISA Kit (#ELH-LIF-001, Raybiotech Inc, Norcross, Ga.) following manufacturer's specifications.
as §5

SMAD2 = SMAD2 phosphorylation in fibroblasts (western blot); assay type: cell-based, human; settings: hDF stimulated by TGFβ1
Excerpt: as §6
For immunoblotting analysis, cells were lysed on ice in lysis buffer (25 mM Tris (pH 6.8), 2% Sodium dodecyl sulfate (SDS), 5% glycerol, 1% beta-mercaptoethanol, 0.01% bromophenol blue). Equal amounts of protein from each sample were loaded on sodium dodecyl sulfate-polyacrylamide gel electrophoresis, separated, and transferred onto nitrocellulose. […]

[6] = A375M2 CM (h. melanoma), antibodies 10 μg·ml−1, αLIF (50)
[7] = A375P CM (h. melanoma), antibodies 10 μg·ml−1
[8] = A549 CM (h. lung carcinoma), antibodies 10 μg·ml−1
[9] = CAL27 CM (human OSCC), antibodies 10 μg·ml−1, αLIF (50)
[10] = CAL33 CM (human OSCC), antibodies 10 μg·ml−1
[11] = CAL33_LIF CM (h. engineered cell line), antibodies 10 μg·ml−1, αLIF (50)
[12] = CAL33_mock CM (h. engineered cell line), antibodies 10 μg·ml−1
[13] = CAL60 CM (human OSCC), antibodies 10 μg·ml−1
[14] = CAL166 CM (human OSCC), antibodies 10 μg·ml−1
[15] = Detroit562 CM (human OSCC), antibodies 10 μg·ml−1
[16] = LS174 CM (h. colon carcinoma), antibodies 10 μg·ml−1
[17] = MDA-MB-231 CM (breast carcinoma), antibodies 10 μg·ml−1
[18] = MDA-MB-468 CM (breast carcinoma), antibodies 10 μg·ml−1
[19] = Mel501 CM (h. melanoma), antibodies 10 μg·ml−1
[20] = Mel1205 CM (h. melanoma), antibodies 10 μg·ml−1
[21] = SCC12 CM (human OSCC), antibodies 10 μg·ml−1
[22] = SCC13 CM (human OSCC), antibodies 10 μg·ml−1
[23] = SCC25 CM (human OSCC), antibodies 10 μg·ml−1
[24] = Sbcl2 CM (h. melanoma), antibodies 10 μg·ml−1
[25] = WM35 CM (h. melanoma), antibodies 10 μg·ml−1
[26] = WM278 CM (h. melanoma), antibodies 10 μg·ml−1
[27] = WM793 CM (h. melanoma), antibodies 10 μg·ml−1

| Molecule | Fibroblasts contractile & pro-invasive phenotype (fibroblasts [1]; [6]) | Fibroblasts contractile & pro-invasive phenotype (fibroblasts [1]; [7]) | Fibroblasts contractile & pro-invasive phenotype (fibroblasts [1]; [8]) | Fibroblasts contractile & pro-invasive phenotype (fibroblasts [1]; [9]) | Fibroblasts contractile & pro-invasive phenotype (fibroblasts [1]; [10]) | Fibroblasts contractile & pro-invasive phenotype (fibroblasts [1]; [11]) | Fibroblasts contractile & pro-invasive phenotype (fibroblasts [1]; [12]) | Fibroblasts contractile & pro-invasive phenotype (fibroblasts [1]; [13]) | Fibroblasts contractile & pro-invasive phenotype (fibroblasts [1]; [14]) | Fibroblasts contractile & pro-invasive phenotype (fibroblasts [1]; [15]) | Fibroblasts contractile & pro-invasive phenotype (fibroblasts [1]; [16]) | Fibroblasts contractile & pro-invasive phenotype (fibroblasts [1]; [17]) | Fibroblasts contractile & pro-invasive phenotype (fibroblasts [1]; [18]) | Fibroblasts contractile & pro-invasive phenotype (fibroblasts [1]; [19]) | Fibroblasts contractile & pro-invasive phenotype (fibroblasts [1]; [20]) | Fibroblasts contractile & pro-invasive phenotype (fibroblasts [1]; [21]) | Fibroblasts contractile & pro-invasive phenotype (fibroblasts [1]; [22]) | Fibroblasts contractile & pro-invasive phenotype (fibroblasts [1]; [23]) | Fibroblasts contractile & pro-invasive phenotype (fibroblasts [1]; [24]) | Fibroblasts contractile & pro-invasive phenotype (fibroblasts [1]; [25]) | other results |
| --- | --- | --- | --- | --- | --- | --- | --- | --- | --- | --- | --- | --- | --- | --- | --- | --- | --- | --- | --- | --- | --- |
| CC(C)(C)c1nc2c3cc[nH]c(=O)c3c3cc(F)ccc3c2[nH]1 [P6, Pyridone 6] | − | − | − | − | − | − | − | − | − | − | − | − | − | − | − | − | − | − | − | − | Fibroblasts contractile & pro-invasive phenotype (fibroblasts [1]; [26]): −; Fibroblasts contractile & pro-invasive phenotype (fibroblasts [1]; [27]): −; Fibroblasts contractile & pro-invasive phenotype (fibroblasts [1]; hPK CM, antibodies 10 μg·ml−1): −; Fibroblasts contractile & pro-invasive phenotype (fibroblasts [2]; 4T1 CM (murine breast carcinoma)): −; Fibroblasts contractile & pro-invasive phenotype (fibroblasts [2]; 4T07 CM (murine breast carcinoma)): −; Fibroblasts contractile & pro-invasive phenotype (fibroblasts [2]; 67NR CM (murine breast carcinoma)): −; Fibroblasts contractile & pro-invasive phenotype (fibroblasts [2]; 410.4 CM (murine breast carcinoma)): −; pro-invasive potential (matrix remodelling) of hCAF (hDF and hCAF): required JAK signalling to sustain their pro-invasive potential; STAT3 phosphorylation induced by TGFβ1 (STAT3): blocked; fibronectin expression pattern (hDF [3]): slightly reduced |
| NC(=O)c1ccc(-c2nc(-c3ccc4c(c3)OCO4)c(-c3ccccn3)[nH]2)cc1 [SB431542] | + | + | + | + | − | + | − | + | + | + | + | + | + | − | + | + | + | + | − | + | Fibroblasts contractile & pro-invasive phenotype (fibroblasts [1]; [26]): +; Fibroblasts contractile & pro-invasive phenotype (fibroblasts [1]; [27]): +; Fibroblasts contractile & pro-invasive phenotype (fibroblasts [1]; hPK CM, antibodies 10 μg·ml−1): − |
| C[C@@H](N)[C@H]1CC[C@H](C(=O)Nc2ccncc2)CC1 [Y27632] |  |  |  |  |  |  |  |  |  |  |  |  |  |  |  |  |  |  |  |  | pro-invasive fibroblast conversion induced by CAL33-LIF CM (fibroblasts [1]; CAL33-LIF CM): blocked; action of SCC12 and SCC13 CM (pro-invasive fibroblast activation) (fibroblasts [1]; SCC12 and SCC13 CM): completely abrogated |
| TGFβ1: TGF beta-1 cytokine (#100-21, Peprotech), used at 2 ng·ml-1 |  |  |  |  |  |  |  |  |  |  |  |  |  |  |  |  |  |  |  |  | increase of IL6 mRNA steady state levels (hDF [4]): 5 fold; increase of LIF mRNA steady state levels (hDF [4]): 100 fold; LIF in hDF cell culture medium, 24 h peak (hDF [5]): 200 pg/mL |
| siRNA GP130-IL6ST: siRNA targeting GP130-IL6ST (SEQ ID NO: 5 and 6), purchased from Dharmacon (chain 1 CUAAUUACAUUGUCUGGAA; chain 2 CUAAGGAGCAAUAUACUAU; listed as RNA, chemistry not given here) |  |  |  |  |  |  |  |  |  |  |  |  |  |  |  |  |  |  |  |  | STAT3 phosphorylation induced by TGFβ1 (STAT3): hampered; SMAD2 activation by TGFβ1 (SMAD2): without affecting |
